Measured values from patent US10981932B2, “Macrocyclic indole derivatives” (Bayer Aktiengesellschaft, priority 2016, dated 2021).
Counter-ions that a name gives are not always drawn. Like-named read-outs stand apart in the source and are kept apart here.

Tests used:
MCL-1 = MCL-1 (Homo sapiens, UniProt Q07820); test: Protein-protein interaction assay MCL-1/Noxa BH3 peptide (MCL-1 assay), TR-FRET; assay type: binding; conditions: MBP-MCL-1 / Noxa BH3-derived peptide, median
Method in brief: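 Inhibition values were normalized between DMSO controls with all reagents and controls lacking MCL-1. The binding competition used 1 nM MBP-MCL-1 in pH 7 Tris buffer containing 50 mM KF and 100 mM NaCl, with a 10 min compound preincubation at 22 °C.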

SUDHL10 [1] = test: Induction of caspase-3/7 activity (Caspase-Glo 3/7), SUDHL10; assay type: cell-based; conditions: caspase-3/7 induction, SUDHL10 cells, 3 h treatment, median
Method in brief: (§1)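 Apoptosis induction measured as caspase-3/7 activity (Caspase-Glo 3/7) in DLBCL lines after 3 h treatment at 37 °C; EC50 derived relative to the reference compound's maximal induction, with C0 fixed at 1.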

A2780 = test: Anti-proliferative effect (CellTiter-Glo, 72 h), A2780; assay type: cell-based; conditions: A2780 cells, median, read-out: IC50 antiproliferation assay A2780 [M] (median)
Method in brief: (§2)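 After seeding, one plate is read right away by CellTiter-Glo luminescence to fix time zero. The treated plates stay at 37 °C in humidified air for 72 h and are then measured with the same reagent and 10 min incubation.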

SUDHL10 [2] = test: Induction of cytotoxicity (CellTiter-Glo, 5 h), SUDHL10
SUDHL10 [3] = test: Anti-proliferative effect (CellTiter-Glo, 72 h), SUDHL10; assay type: cell-based; conditions: SUDHL10 cells, antiproliferation, median, read-out: Antiproli SUDHL10 [M] (median)
Method in brief: as §2

SUDHL5 [4] = test: Induction of caspase-3/7 activity (Caspase-Glo 3/7), SUDHL5; assay type: cell-based; conditions: caspase-3/7 induction, SUDHL5 cells, 3 h treatment, median
Method in brief: as §1

SUDHL5 [5] = test: Anti-proliferative effect (CellTiter-Glo, 72 h), SUDHL5; assay type: cell-based; conditions: SUDHL5 cells, antiproliferation, median, read-out: Antiproli SUDHL5 [M] (median)
Method in brief: as §2

SUDHL5 [6] = test: Induction of cytotoxicity (CellTiter-Glo, 5 h), SUDHL5
[7] = read-out: Cytotox SUDHL10 [M] (median), SUDHL10 cells, cytotoxicity induction, CellTiter-Glo, 5 h incubation, median
[8] = read-out: Cytotox SUDHL5 [M] (median), SUDHL5 cells, cytotoxicity induction, CellTiter-Glo, 5 h incubation, median
[9] = Homo sapiens, SU-DHL10, 5 h, read-out: Cytotox SUDHL10 [M] (median), SUDHL10 cells, cytotoxicity induction, CellTiter-Glo, 5 h, median
[10] = Homo sapiens, SU-DHL10, 72 h, 72 h
[11] = Homo sapiens, SU-DHL-5, 72 h, 72 h
[12] = Homo sapiens, SU-DHL-5, 5 h, read-out: Cytotox SUDHL5 [M] (median), SUDHL5 cells, cytotoxicity induction, CellTiter-Glo, 5 h, median
[13] = Homo sapiens, SU-DHL10, 5 h, read-out: Cytotox SUDHL10 [M] (median), SUDHL10 cells, cytotoxicity induction, CellTiter-Glo, 5 h incubation, median
[14] = Homo sapiens, SU-DHL-5, 72 h, 72 h incubation
[15] = Homo sapiens, SU-DHL10, 72 h, 72 h incubation
[16] = Homo sapiens, SU-DHL-5, 5 h, read-out: Cytotox SUDHL5 [M] (median), SUDHL5 cells, cytotoxicity induction, CellTiter-Glo, 5 h incubation, median

Chain of MCL-1 (Q07820 whole entry): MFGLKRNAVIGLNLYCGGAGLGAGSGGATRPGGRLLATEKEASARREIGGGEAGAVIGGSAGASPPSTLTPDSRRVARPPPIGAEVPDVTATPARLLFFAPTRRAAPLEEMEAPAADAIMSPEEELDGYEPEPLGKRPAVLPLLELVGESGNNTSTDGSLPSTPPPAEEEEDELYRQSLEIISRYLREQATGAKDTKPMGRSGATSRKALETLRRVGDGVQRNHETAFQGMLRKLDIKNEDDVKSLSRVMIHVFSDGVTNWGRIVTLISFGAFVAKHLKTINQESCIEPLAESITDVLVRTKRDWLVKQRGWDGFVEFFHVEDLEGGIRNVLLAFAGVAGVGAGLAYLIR

Structure (SMILES)	IC50 (MCL-1) [nM]	EC50 (SUDHL10 [1]) [µM]	IC50 (A2780) [M]	IC50 (SUDHL10 [2]; [7]) [M]	IC50 (SUDHL10 [3]; 72 h incubation) [M]	EC50 (SUDHL5 [4]) [µM]	IC50 (SUDHL5 [5]; 72 h incubation) [M]	IC50 (SUDHL5 [6]; [8]) [M]	EC50 (SUDHL10 [1]; Homo sapiens, SU-DHL10, 3 h) [µM]	IC50 (A2780; Homo sapiens, A2780, 72 h) [M]	IC50 (SUDHL10 [2]; [9]) [M]	IC50 (SUDHL10 [3]; [10]) [M]	EC50 (SUDHL5 [4]; Homo sapiens, SU-DHL-5, 3 h) [µM]	IC50 (SUDHL5 [5]; [11]) [M]	IC50 (SUDHL5 [6]; [12]) [M]	IC50 (SUDHL10 [2]; [13]) [M]	IC50 (SUDHL5 [5]; [14]) [M]	IC50 (SUDHL10 [3]; [15]) [M]	IC50 (SUDHL5 [6]; [16]) [M]
Cc1nn(C)c2c1-c1cccc3c(CCCOc4cccc5cc(F)ccc45)c(C(=O)O)n(c13)CCCCOC2 (single isomer, unassigned; enantiomer 2) [Example 020, 7-{3-[(6-fluoronaphthalen-1-yl)oxy]propyl}-1,3-dimethyl-1,10,11,12,13,15-hexahydropyrazolo[4′,3′:9,10][1,6]oxazacycloundecino[8,7,6-hi]indole-8-carboxylic Acid-N-ethylethanamine Salt (Enantiomer 2)]	64.6	> 33	1.37e-05	> 3.3e-05	6.75e-06	> 33	1.72e-05	2.31e-05											
Cn1nc(CN2CCCC2)c2c1COCCCCn1c(C(=O)O)c(CCCOc3cccc4ccccc34)c3cccc-2c31 (racemic) [Example 335, (rac)-1-methyl-7-[3-(naphthalen-1-yloxy)propyl]-3-(pyrrolidin-1-ylmethyl)-1,10,11,12,13,15-hexahydropyrazolo[4′3′:9,10][1,6]oxazacycloundecino[8,7,6-hi]indole-8-carboxylic Acid]	180								> 33	2.35e-05	2.77e-05	2.24e-05	27.2	1.93e-05	2.57e-05				
CCCc1nn(C)c2c1-c1c(C)ccc3c(CCCOc4cccc5ccccc45)c(C(=O)O)n(c13)CCCN(C)C2 (single isomer, unassigned; enantiomer 2) [Example 197, 7,9,12-trimethyl-1-[3-(naphthalen-1-yloxy)propyl]-1-propyl-4,5,6,7,8,9-hexahydropyrazolo[3′,4′:7,8][1,5]diazecino[9,10,1-hi]indole-2-carboxylic acid-N-ethylethanamine Salt (Enantiomer 2)]	104	> 33	1.49e-05	1.55e-05	8.15e-06	28.7	1.78e-05	1.93e-05											
Cc1cc(OCCCc2c(C(=O)O)n3c4c(cccc24)-c2c(C)nn(C)c2COCCCC3)cc(C)c1Cl (single isomer, unassigned; enantiomer 1) [Example 010, 7-[3-(4-chloro-3,5-dimethylphenoxy)propyl]-1,3-dimethyl-1,10,11,12,13,15-hexahydropyrazolo[4′,3′:9,10][1,6]oxazacycloundecino[8,7,6-hi]indole-8-carboxylic acid-N-ethylethanamine Salt (Enantiomer 1)]	4.96				3.91e-06	6.62		7.4e-06	18.6	2.06e-05						2.27e-05	1.27e-05		
COCc1c2c(nn1C)COCCCCn1c(C(=O)O)c(CCCOc3cccc4ccccc34)c3cccc-2c31 (racemic) [Example 099, (rac)-3-(methoxymethyl)-2-methyl-7-[3-(naphthalen-1-yloxy)propyl]-2,10,11,12,13,15-hexahydropyrazolo[4′,3′:9,10][1,6]oxazacycloundecino[8,7,6-hi]indole-8-carboxylic Acid]	4.3								12.8	2.11e-05			5.2			1.75e-05	8.47e-06	1.08e-05	3.86e-06
Cn1nc(CN2CCCCC2=O)c2c1COCCCCn1c(C(=O)O)c(CCCOc3cccc4ccccc34)c3cccc-2c31 (racemic) [Example 325, (rac)-1-methyl-7-[3-(naphthalen-1-yloxy)propyl]-3-[(2-oxopiperidin-1-yl)methyl]-1,10,11,12,13,15-hexahydropyrazolo[4′,3′:9,10][1,6]oxazacycloundecino[8,7,6-hi]indole-8-carboxylic Acid]	80.2								> 33	> 3.3e-05	> 3.3e-05	1.45e-05	> 33	2.13e-05	> 3.3e-05				
COc1c2c(nn1C)COCCCCn1c(C(=O)O)c(CCCOc3cccc4ccccc34)c3cccc-2c31 (racemic) [Example 207, (rac)-3-methoxy-2-methyl-7-[3-(naphthalen-1-yloxy)propyl]-2,10,11,12,13,15-hexahydropyrazolo[4′,3′:9,10][1,6]oxazacycloundecino[8,7,6-hi]indole-8-carboxylate]	6.81								11.4	2.47e-05			4.85			1.08e-05	5.28e-06	7.76e-06	4.45e-06
Cc1ccc2c(CCCOc3cccc4ccccc34)c(C(=O)O)n3c2c1-c1c(C)nn(C)c1COCC=CC3 (racemic) [Example 038, (rac)-(E/Z)-1,3,4-trimethyl-7-[3-(1-naphthyloxy)propyl]-1,10,13,15-tetrahydropyrazolo[4′,3′:9,10][1,6]oxazacycloundecino[8,7,6-hi]indole-8-carboxylic Acid]	9.65								> 33	> 3.3e-05			13.9			> 3.3e-05	1.64e-05	1.46e-05	1.46e-05
Cc1nn(C)c2c1-c1cccc3c(CCCOc4ccc(F)c5ccccc45)c(C(=O)O)n(c13)CCCCOC2 (single isomer, unassigned; enantiomer 1) [Example 022, 7-{3-[(4-fluoronaphthalen-1-yl)oxy]propyl}-1,3-dimethyl-1,10,11,12,13,15-hexahydropyrazolo[4′,3′:9,10][1,6]oxazacycloundecino[8,7,6-hi]indole-8-carboxylic Acid-N-ethylethanamine Salt (Enantiomer 1)]	1.63	17.6		2.02e-05				4.08e-06		2.59e-05			4.19				7.53e-06	6.52e-06	
Cc1c2c(nn1C)CCCCCCn1c(C(=O)O)c(CCCOc3cccc4ccccc34)c3cccc-2c31 (racemic) [Example 190, (rac)-2,3-dimethyl-7-[3-(1-naphthyloxy)propyl]-10,11,12,13,14,15-hexahydro-2H-pyrazolo[4′,3′:4,5]azacycloundecino[3,2,1-hi]indole-8-carboxylic Acid]	5.46								7.26	2.02e-05			3.13			9.19e-06	2.35e-06	5.34e-06	3.85e-06
Cc1cc2c(OCCCc3c(C(=O)O)n4c5c(cccc35)-c3c(C)nn(C)c3COCCCC4)cccc2cc1F (single isomer, unassigned; enantiomer 2) [Example 051, 7-{3-[(6-fluoro-7-methylnaphthalen-1-yl)oxy]propyl}-1,3-dimethyl-1,10,11,12,13,15-hexahydropyrazolo[4′,3′:9,10][1,6]oxazacycloundecino[8,7,6-hi]indole-8-carboxylic acid-N-ethylethanamine Salt (Enantiomer 2)]	73.7	> 33	1.53e-05	2.02e-05	4.39e-06	> 33	8.91e-06	3e-05											
